pIC50: −log10 of the molar value. Converted amounts (≈) assume the structure as drawn. “And” between values parts separate entries of the source, which are not always exact repeats. Equal entries are not always repeated. Where two headings read alike, the source gives them in different places.
What was measured:
Mtb H37Rv = assay: microbe, parasite or virus in culture; format: cell-based, Mycobacterium tuberculosis
HepG2 cells = conditions: 24 h
in vitro = conditions: human, 24 h
Mtb H37Rv WT = assay: microbe, parasite or virus in culture; format: cell-based; conditions: Mycobacterium tuberculosis
Mtb strain H37Rv = assay: MIC against Mtb H37Rv under various media/carbon sources; format: cell-based; conditions: Mycobacterium tuberculosis
[1] = test system: DNA damage responsive recA and radA reporters; format: cell-based, Mycobacterium tuberculosis
[2] = Microsomal stability, human; format: in vitro ADME; conditions: human liver microsomes, read-out: % Remaining after 2 h incubation Human
Description: (§1) % Remaining after 2 h incubation
(§2) Compound Chemical Structure
(§3) Table S1. Microsomal stability of some pyrazolo[1,5-a]pyrimidin-7(4H)-one derivatives
(§4) Microsomal stability was tested in microsomes from liver of female mouse (M9566 from Sigma-Aldrich)a or microsomes
(§5) from human liver (M0317 from Sigma-Aldrich)b.

[3] = Microsomal stability, mouse; format: in vitro ADME; conditions: liver microsomes of female mouse, read-out: % Remaining after 2 h incubation Mouse
Description: as §1, §2, §3, §4, §5

[4] = Mycobacterium tuberculosis, H37RV, read-out: MIC in 7H9 ADC
[5] = Mycobacterium tuberculosis, H37RV, read-out: MIC in 7H9 GCas
[6] = read-out: Cytotoxicity (IC50) Galactose, HepG2 cells in DMEM/10% FBS with galactose
[7] = read-out: Cytotoxicity (IC50) Glucose, HepG2 cells in DMEM/10% FBS supplemented with glucose
[8] = Cytotoxicity (IC50) Galactose, HepG2 cells in DMEM/10% FBS with galactose
[9] = Cytotoxicity (IC50) Glucose, HepG2 cells in DMEM/10% FBS supplemented with glucose

Row | Compound | MIC (Mtb H37Rv; [4]) | MIC (Mtb H37Rv; [5]) | pIC50 (in vitro; [8]) | pIC50 (in vitro; [9]) | other results
1 | Cc1nn2c(=O)cc(-c3ccccc3)n(C)c2c1-c1ccccc1 [Compound P2, 2,4-Dimethyl-3,5-diphenylpyrazolo[1,5-a]pyrimidin-7(4H)-one] | > 100 µM | 50 µM (≈ 15.8 µg/mL) |  |  | MIC (Mtb H37Rv; read-out: MIC in 7H9 GCas): 50 µM (≈ 15.8 µg/mL)
2 | 5-Isobutyl-2-methyl-3-phenylpyrazolo[1,5-a]pyrimidin-7(4H)-one [Compound P12] |  |  |  |  | pIC50 (HepG2 cells; [6]): < 4.00; pIC50 (HepG2 cells; [7]): < 4.00; MIC (Mtb H37Rv; read-out: MIC in 7H9 ADC): 100 µM; MIC (Mtb H37Rv; read-out: MIC in 7H9 GCas): 12.5 µM
3 | CC(C)c1nn2c(=O)cc(-c3ccccc3)[nH]c2c1-c1ccccc1 [Compound P23, 2-Isopropyl-3,5-diphenylpyrazolo[1,5-a]pyrimidin-7(4H)-one] | > 100 µM | 12.5 µM (≈ 4.12 µg/mL) | 4.06 | < 4.00 | 
4 | Cc1nn2c(=O)c(C)c(-c3ccccc3)[nH]c2c1-c1ccccc1 [Compound P6, 2,6-Dimethyl-3,5-diphenylpyrazolo[1,5-a]pyrimidin-7(4H)-one] | 43.8 µM (≈ 13.8 µg/mL) | 3.12 µM (≈ 0.984 µg/mL) | < 4.00 | < 4.00 | 
5 | 2-Methyl-3-phenyl-5-(pyridin-3-yl)pyrazolo[1,5-a]pyrimidin-7(4H)-one [Compound P13] |  |  |  |  | pIC50 (HepG2 cells; [6]): < 4.00; pIC50 (HepG2 cells; [7]): < 4.00; MIC (Mtb H37Rv; read-out: MIC in 7H9 ADC): 50.0 µM and 50 µM; MIC (Mtb H37Rv; read-out: MIC in 7H9 GCas): 12.5 µM
6 | O=c1cc(-c2ccccc2)[nH]c2c(-c3ccccc3)cnn12 [Compound P22, 3,5-Diphenylpyrazolo[1,5-a]pyrimidin-7(4H)-one] | 12.5 µM (≈ 3.59 µg/mL) | 6.25 µM (≈ 1.8 µg/mL) | < 4.00 | < 4.00 | 
7 | O=c1cc(-c2ccc(F)c(F)c2)[nH]c2c(-c3ccccc3)c(C(F)(F)F)nn12 [Compound P27, 5-(3,4-Difluorophenyl)-3-phenyl-2-(trifluoromethyl)pyrazolo[1,5-a]pyrimidin-7(4H)-one] | > 100 µM | 100 µM (≈ 39.1 µg/mL) | < 4.00 | < 4.00 | 
8 | O=c1cc(-c2ccc(F)c(F)c2)[nH]c2c(-c3ccc(Cl)cc3)cnn12 [Compound P26, 3-(4-Chlorophenyl)-5-(3,4-difluorophenyl)pyrazolo[1,5-a]pyrimidin-7(4H)-one] | 12.5 µM (≈ 4.47 µg/mL) | 12.5 µM (≈ 4.47 µg/mL) | 4.73 | 4.24 | potency relative to P25 (Mtb H37Rv): 4 fold
9 | 5-(2-Fluorophenyl)-2-methyl-3-phenylpyrazolo[1,5-a]pyrimidin-7(4H)-one [Compound P16] |  |  |  |  | pIC50 (HepG2 cells; [6]): < 4.00; pIC50 (HepG2 cells; [7]): < 4.00; MIC (Mtb H37Rv; read-out: MIC in 7H9 ADC): 12.5 µM; MIC (Mtb H37Rv; read-out: MIC in 7H9 GCas): 3.12 µM
10 | NNC(=O)c1ccncc1 [INH, isoniazid, reference compound] | 0.23 µM (≈ 0.0315 µg/mL) | 0.16 µM (≈ 0.0219 µg/mL) |  |  | MIC (Mtb H37Rv WT): 0.04 µM (≈ 0.00549 µg/mL); MIC (Mtb strain H37Rv; GAST/Fe, read-out: MIC GAST): 0.1 µM (≈ 0.0137 µg/mL); MIC (Mtb strain H37Rv; read-out: MIC 7H9): 0.39 µM (≈ 0.0535 µg/mL); MIC (Mtb strain H37Rv; read-out: MIC Chol): 0.2 µM (≈ 0.0274 µg/mL); MIC (Mtb strain H37Rv; read-out: MIC GBSA/DBSA): 0.3 µM (≈ 0.0411 µg/mL)
11 | COc1c(N2C[C@@H]3CCCN[C@@H]3C2)c(F)cc2c(=O)c(C(=O)O)cn(C3CC3)c12 [MOX, moxifloxacin] |  |  |  |  | reporter gene assay DNA damage [1]: yes
12 | Cc1nn2c(=O)cc(CC3CCCCC3)[nH]c2c1-c1ccccc1 [Compound P9, 5-(Cyclohexylmethyl)-2-methyl-3-phenylpyrazolo[1,5-a]pyrimidin-7(4H)-one] | > 100 µM | > 100 µM | 4.30 | 4.07 | 
13 | Cc1nn2c(=O)cc(Cc3ccccc3)[nH]c2c1-c1ccccc1 [Compound P8, 5-Benzyl-2-methyl-3-phenylpyrazolo[1,5-a]pyrimidin-7(4H)-one] | 75 µM (≈ 23.7 µg/mL) | 3.12 µM (≈ 0.984 µg/mL) | < 4.00 | < 4.00 | MIC (Mtb H37Rv; read-out: MIC in 7H9 ADC): 75 µM (≈ 23.7 µg/mL)
14 | Antimycin [reference compound] |  |  |  |  | pIC50 (HepG2 cells; [6]): 5.47; pIC50 (HepG2 cells; [7]): 4.16
15 | Cc1nn2c(=O)cc(-c3ccc(Cl)c(Cl)c3)[nH]c2c1-c1ccccc1 [Compound P20, 5-(3,4-Dichlorophenyl)-2-methyl-3-phenylpyrazolo[1,5-a]pyrimidin-7(4H)-one] | 2.34 µM (≈ 0.866 µg/mL) | 1.56 µM (≈ 0.578 µg/mL) | 4.25 | < 4.00 | improvement in MIC compared to the initial hit 1 (Mtb H37Rv): 5 fold; remaining at 2 h [2]: 55%; remaining at 2 h [3]: 41%
16 | Cc1nn2c(=O)cc(-c3ccccc3)[nH]c2c1C [Compound P21, 2,3-Dimethyl-5-phenylpyrazolo[1,5-a]pyrimidin-7(4H)-one] | > 100 µM | 12.5 µM (≈ 2.99 µg/mL) | < 4.00 | < 4.00 | 

Source: article PMC7887755, “Structure–Activity Relationships of Pyrazolo[1,5-a]pyrimidin-7(4H)-ones as Antitubercular Agents” (ACS Infectious Diseases, 2021)
